Test results as given in US9388142B2, “Quinazolinone derivatives as PARP inhibitors” (MERCK PATENT GMBH, priority 2012, dated 2016).
Counter-ions that a name gives are not always drawn. Like-named read-outs stand apart in the source and are kept apart here.

Assays:
[1] = at 30 μM; cited from earlier work
[2] = biological target: T1, GST-tagged Tankyrase-1 (1023-1327 aa) (Homo sapiens, UniProt O95271); assay: biochemical; conditions: read-out: IC50 tankyrase 1 (enzyme assay)
T1 construct: GST-tagged Tankyrase-1 (1023-1327 aa)
From the text: (§1) aq (aqueous), h (hour), g (gram), L (liter), mg (milligram), MHz (Megahertz), min. (minute), mm (millimeter), mmol (millimole), mM (millimolar), m.p. (melting point), eq (equivalent), mL (milliliter), L (microliter), ACN (acetonitrile), AcOH (acetic acid), CDCl3 (deuterated chloroform), CD3OD (deuterated methanol), CH3CN (acetonitrile), c-hex (cyclohexane), DCC (dicyclohexyl carbodiimide), DCM (dichloromethane), DIC (diisopropyl carbodiimide), DIEA (diisopropylethyl-amine), DMF (dimethylformamide), DMSO (dimethylsulfoxide), DMSO-d6 (deuterated dimethylsulfoxide), EDC (1-(3-dimethyl-amino-propyl)-3-ethylcarbodiimide), ESI (Electro-spray ionization), EtOAc (ethyl acetate), Et2O (diethyl ether), EtOH (ethanol), HATU (dimethylamino-([1,2,3]triazolo[4,5-b]pyridin-3-yloxy)-methylene]-dimethylammonium hexafluorophosphate), HPLC (High Performance Liquid Chromatography), i-PrOH (2-propanol), K2CO3 (potassium carbonate), LC (Liquid Chromatography), MeOH (methanol), MgSO4 (magnesium sulfate), MS (mass spectrometry), MTBE (Methyl tert-butyl ether), NaHCO3 (sodium bicarbonate), NaBH4 (sodium borohydride), NMM (N-methyl morpholine), NMR (Nuclear Magnetic Resonance), PyBOP (benzotriazole-1-yl-oxy-trispyrrolidino-phosphonium hexafluorophosphate), RT (room temperature), Rt (retention time), SPE (solid phase extraction), TBTU (2-(1-H-benzotriazole-1-yl)-1,1,3,3-tetramethyluromium tetrafluoro borate), TEA (triethylamine), TFA (trifluoroacetic acid), THF (tetrahydrofuran), TLC (Thin Layer Chromatography), UV (Ultraviolet). Description of the In Vitro Assays Abbreviations: GST=Glutathione-S-transferase FRET=Fluorescence resonance energy transfer HTRF®=(homogenous time resolved fluorescence) HEPES=4-(2-hydroxyethyl)-1-piperazine ethanesulfonic acid buffer DTT=Dithiothreitol BSA=bovine serum albumin CHAPS=detergent; CHAPS=3[(3-cholamidopropyl)dimethylammonio]-1-propanesulfonate Streptavidin-XLent® is a high grade streptavidin-XL665 conjugate for which the coupling conditions have been optimized to yield a conjugate with enhanced performances for some assays, particularly those requiring high sensitivity.
(§2) The autoparsylation assay is run in two steps: the enzymatic reaction in which GST-tagged Tankyrase-1, resp Tankyrase-2 transferred biotinylated ADP-ribose to itself from biotinylated NAD as co-substrate and the detection reaction where a time resolved FRET between cryptate labelled anti-GST bound to the GST tag of the enzyme and Xlent® labelled-streptavidin bound the biotin-parsylation residue is analysed. The autoparsylation activity was detectable directly via the increase in HTRF signal.
(§3) The autoparsylation assay is performed as 384-well HTRF® (Cisbio, Codolet, France) assay format in Greiner low volume nb 384-well microtiter plates and is used for high throughput screen. […] The reaction is stopped by the addition of 1 μl 50 mM EDTA solution. […] The ratio of the emission signals is determined. The full value used is the inhibitor-free reaction. […] The inhibitory values (IC50) are determined using either the program Symyx Assay Explorer® or Condosseo® from GeneData.

[3] = biological target: GST-tagged Tankyrase-2 (873-1166 aa) (Homo sapiens, UniProt Q9H2K2); assay: biochemical
From the text: as §1, §2, §3

His-tagged Parp-1 = biological target: T2, His-tagged Parp-1 (Homo sapiens, UniProt P09874); assay: PARP-1 autoparsylation assay (HTRF); assay type: biochemical
T2 construct: purchased Enzo Life Sciences GmbH, Lörrach, Germany
From the text: Description of the PARP1 Assay
Biochemical Activity Testing of PARP-1: Autoparsylation Assay
as §2, with “His-tagged Parp-1 transfers” for “GST-tagged Tankyrase-1, resp Tankyrase-2 transferred”, “ADP-ribose/ADP-ribose” for “ADP-ribose”, “NAD/NAD” for “NAD”, “anti-His antibody” for “anti-GST”, “His” for “GST”, “is” for “was”
The autoparsylation assay is performed as 384-well HTRF® (Cisbio, Codolet, France) assay format in Greiner low volume nb 384-well microtiter plates. 35 nM His-tagged Parp-1 (human, recombinant, Enzo Life Sciences GmbH, Lörrach, Germany) and a mixture of 125 nM bio-NAD (Biolog, Life science Inst., Bremen, Germany) and 800 nM NAD as co-substrate are incubated in a total volume of 6 μl (100 mM Tris/HCl, 4 mM Mg-chloride, 0.01% IGEPAL® CA630, 1 mM DTT, 0.5% DMSO, pH 8, 13 ng/μl activated DNA (BPS Bioscience, San Diego, US)) in the absence or presence of the test compound (10 dilution concentrations) for 150 min at 23° C. The reaction is stopped by the addition of 4 μl of the Stop/detection solution (70 nM SA-Xlent® (Cisbio, Codolet, France), 2.5 nM Anti-His-K® (Eu-labelled anti-His, Cisbio, Codolet, France) in 50 mM HEPES, 400 mM KF, 0.1% BSA, 20 mM EDTA, pH 7.0). After 1 h incubation at room temperature the HTRF iss measured with an Envision multimode reader (Perkin Elmer LAS Germany GmbH) at excitation wavelength 340 nm (laser mode) and emission wavelengths 615 nm and 665 nm. The ratio of the emission signals is determined. The full value used is the inhibitor-free reaction. The pharmacological zero value used is Olaparib (LClabs, Woburn, US) in a final concentration of 1 The inhibitory values (IC50) are determined using either the program Symyx Assay Explorer® or Condosseo® from GeneData.

[4] = biological target: T3, GST-tagged Tnks-1 (1023-1327 aa) (Homo sapiens, UniProt O95271); assay: TNKS1 activity ELISA (autoparsylation assay); assay type: biochemical
T3 construct: GST-tagged Tnks-1 (1023-1327 aa, prepared in-house); made in house
Protocol: (§4) Description of the TNKS1 and TNKS2 ELISA Assay
(§5) Then the activity assay with biotinylated NAD is performed in the absence/presence of the compounds. During the enzymatic reaction GST tagged TNKS transfers biotinylated ADP-ribose to itself from biotinylated NAD as co-substrate. For the detection streptavidin-HRP conjugate is added that binds to the biotinylated TNKS and is thereby captured to the plates. The amount of biotinylated resp. autoparsylated TNKS is detected with a luminescence substrate for HRP. The level of the luminescence signal correlates directly with the amount of autoparsylated TNKS and therefore with activity of TNKS.
(§6) The activity ELISA is performed in 384 well Glutathione coated microtiter plates (Express capture Glutathione coated plate, Biocat, Heidelberg, Germany). The plates are pre-equilibrated with PBS. […] The plates are washed 3 times with PBS-Tween-20. The wells are blocked by incubation at room temperature for 20 minutes with 50 μl blocking buffer (PBS, 0.05% Tween-20, 0.5% BSA). Afterwards the plates are washed 3 times with PBS-Tween-20. […] The reaction is stopped by 3 times washing with PBS-Tween-20. For the detection 50 μl of 20 ng/μl Streptavidin, HRP conjugate (MoBiTec, Gottingen, Germany) in PBS/0.05% Tween-20/0.01% BSA are added and the plates are incubated for 30 minutes at room temperature. After three times washing with PBS-Tween-20 50 μl of SuperSignal ELISA Femto Maximum sensitivity substrate solution (ThermoFisherScientific (Pierce), Bonn, Germany) are added. Following a 1 minute incubation at room temperature luminescence signals are measured with an Envision multimode reader (Perkin Elmer LAS Germany GmbH) at 700 nm. The full value used is the inhibitor-free reaction. […] The inhibitory values (IC50) are determined using either the program Symyx Assay Explorer® or Condosseo® from GeneData.

[5] = biological target: GST-tagged Tnks-2 (873-1166 aa) (Homo sapiens, UniProt Q9H2K2); assay: biochemical
Protocol: as §4, §5, §6

tankyrase 1/2 = assay: Cellular inhibition of tankyrase: increase of Axin2 level in DLD1 cells (Luminex); assay type: cell-based; conditions: read-out: EC50 tankyrase 1/2 (cell assay), 24 hours
Protocol: Measurement of Cellular Inhibition of Tankyrase
Cells of the colon carcinoma cell line DLD1 are plated in 96 well plates with 1.5×10^4 cells per well. Next day, cells are treated with a serial dilution of test compound in seven steps as triplicates with a final DMSO concentration of 0.3%. After 24 hours, cells are lysed in lysis buffer (20 mM Tris/HCl pH 8.0, 150 mM NaCl, 1% NP40, 10% Glycerol) and lysates are cleared by centrifugation through a 96 well filter plate (0.65 μm). […] The amount of isolated Axin2 protein is determined in a Luminex^200 machine (Luminex Corporation) according to the manufacturer's instruction by counting 100 events per well. […] For analysis, the obtained data are normalized against the untreated solvent control and fitted for determination of the EC50 values using the Assay Explorer software (Accelrys).

DLD-1-cancer cells = conditions: cited from earlier work
β-catenin = conditions: by increasing the levels of the AXIN1 and AXIN2 proteins; cited from earlier work

T1 sequence (O95271 1023-1327): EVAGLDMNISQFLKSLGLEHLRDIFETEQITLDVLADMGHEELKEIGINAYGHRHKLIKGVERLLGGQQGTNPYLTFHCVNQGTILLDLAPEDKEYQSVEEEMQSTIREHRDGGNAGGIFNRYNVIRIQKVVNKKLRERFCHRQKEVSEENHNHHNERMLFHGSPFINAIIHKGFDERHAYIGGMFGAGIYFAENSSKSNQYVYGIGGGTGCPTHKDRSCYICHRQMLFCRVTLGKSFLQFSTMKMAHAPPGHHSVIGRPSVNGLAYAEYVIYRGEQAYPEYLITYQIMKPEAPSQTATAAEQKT
T3 sequence (O95271 1023-1327): as above
T2 sequence (P09874 whole entry): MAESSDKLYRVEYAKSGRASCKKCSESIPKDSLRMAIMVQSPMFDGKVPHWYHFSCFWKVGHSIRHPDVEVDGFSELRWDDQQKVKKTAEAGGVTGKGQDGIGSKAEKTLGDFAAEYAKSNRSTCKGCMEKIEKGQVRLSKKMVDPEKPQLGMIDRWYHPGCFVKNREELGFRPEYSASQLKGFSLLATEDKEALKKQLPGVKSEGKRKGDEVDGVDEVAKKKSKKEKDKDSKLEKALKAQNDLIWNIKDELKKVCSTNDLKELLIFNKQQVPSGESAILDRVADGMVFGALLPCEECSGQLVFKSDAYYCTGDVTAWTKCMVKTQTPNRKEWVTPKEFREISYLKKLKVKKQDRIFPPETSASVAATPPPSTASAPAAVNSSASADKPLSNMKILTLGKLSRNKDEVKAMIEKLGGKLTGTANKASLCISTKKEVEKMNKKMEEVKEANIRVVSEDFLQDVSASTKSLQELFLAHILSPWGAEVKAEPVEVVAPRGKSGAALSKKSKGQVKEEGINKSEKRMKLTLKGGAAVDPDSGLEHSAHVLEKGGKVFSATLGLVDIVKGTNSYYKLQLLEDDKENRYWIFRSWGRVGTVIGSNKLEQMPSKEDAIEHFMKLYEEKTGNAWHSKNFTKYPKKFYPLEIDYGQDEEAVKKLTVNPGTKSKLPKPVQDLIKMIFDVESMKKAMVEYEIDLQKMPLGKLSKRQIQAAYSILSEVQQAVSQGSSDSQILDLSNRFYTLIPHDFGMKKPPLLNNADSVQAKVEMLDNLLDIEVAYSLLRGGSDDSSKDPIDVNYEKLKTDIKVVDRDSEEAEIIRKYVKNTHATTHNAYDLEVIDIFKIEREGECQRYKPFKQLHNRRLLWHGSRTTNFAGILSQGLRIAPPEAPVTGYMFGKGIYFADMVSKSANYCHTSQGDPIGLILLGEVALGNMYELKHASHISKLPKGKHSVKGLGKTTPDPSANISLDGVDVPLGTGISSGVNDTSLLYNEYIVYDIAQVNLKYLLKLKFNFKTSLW
Chain of GST-tagged Tankyrase-2 (873-1166 aa) (Q9H2K2 873-1166): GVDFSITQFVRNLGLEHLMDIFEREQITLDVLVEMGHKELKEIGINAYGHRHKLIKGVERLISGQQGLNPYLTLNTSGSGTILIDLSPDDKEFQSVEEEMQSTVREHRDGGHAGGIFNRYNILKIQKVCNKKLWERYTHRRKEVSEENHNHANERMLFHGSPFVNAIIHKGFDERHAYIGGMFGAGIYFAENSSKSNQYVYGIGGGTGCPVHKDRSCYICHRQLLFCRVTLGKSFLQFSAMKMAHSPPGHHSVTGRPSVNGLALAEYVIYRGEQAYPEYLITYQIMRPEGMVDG
Chain of GST-tagged Tnks-2 (873-1166 aa) (Q9H2K2 873-1166): as above

SMILES	IC50 [2]	IC50 [3]	IC50 (His-tagged Parp-1)	further results
O=c1[nH]c(-c2ccc3c(c2)OCO3)nc2ccccc12	–	–	–	cellular assay [1]: no effect
CC(C)c1ccc(-c2nc3ccc(F)cc3c(=O)[nH]2)cc1 [Compound A22, 6-fluoro-2-(4-isopropyl-phenyl)-3H-quinazolin-4-one]	300 to 3000 nM	300 to 3000 nM	–	–
Cc1cc(F)cc2c(=O)[nH]c(-c3ccc(N4CCN(C)CC4)cc3)nc12 [Compound A28, 6-fluoro-8-methyl-2-[4-(4-methyl-piperazin-1-yl)-phenyl]-3H-quinazolin-4-one]	300 to 3000 nM	–	< 300 nM	IC50 ([4]; read-out: IC50 TNKS1 ELISA): < 300 nM
Cc1cc(F)cc2c(=O)[nH]c(-c3ccc(N4CCS(=O)(=O)CC4)cc3)nc12 [Compound A30, 2-[4-(1,1-dioxo-1|6-thiomorpholin-4-yl)-phenyl]-6-fluoro-8-methyl-3H-quinazolin-4-one]	300 to 3000 nM	300 to 3000 nM	300 to 3000 nM	IC50 [5]: < 300 nM; EC50 (tankyrase 1/2): < 300 nM; IC50 [4]: < 300 nM
Cc1cc(F)cc2c(=O)[nH]c(-c3ccc(N4CCCN(C)CC4)cc3)nc12 [Compound A32, 6-fluoro-8-methyl-2-[4-(4-methyl-[1,4]diazepan-1-yl)-phenyl]-3H-quinazolin-4-one]	300 to 3000 nM	300 to 3000 nM	–	EC50 (tankyrase 1/2): 300 to 3000 nM
Cc1cc(F)cc2c(=O)[nH]c(-c3ccc(C4CCNCC4)cc3)nc12 [Compound A33, 6-fluoro-8-methyl-2-(4-piperidin-4-yl-phenyl)-3H-quinazolin-4-one hydrochloride]	< 300 nM	–	300 to 3000 nM	IC50 [4]: < 300 nM
Oc1nc(-c2ccc(C(F)(F)F)cc2)nc2c1CSCC2 [XAV939]	–	–	–	growth of DLD-1-cancer cells (DLD-1-cancer cells): inhibits growth; Wnt-stimulated accumulation of β-catenin (β-catenin): blocked
